Results: US6344468B1, “Substituted isoindolones and their use as cyclic GMP modulators in medicaments” (Aventis Pharma Deutschland GmbH, priority 1998, dated 2002)

Target: T1, soluble guanylate cyclase (sGC) (Bos taurus, UniProt P16068+P19687)
T1 construct: The sGC which was employed had been isolated from bovine lung; from tissue; host or cells: bovine lung
T1 sequence (P16068 1-619): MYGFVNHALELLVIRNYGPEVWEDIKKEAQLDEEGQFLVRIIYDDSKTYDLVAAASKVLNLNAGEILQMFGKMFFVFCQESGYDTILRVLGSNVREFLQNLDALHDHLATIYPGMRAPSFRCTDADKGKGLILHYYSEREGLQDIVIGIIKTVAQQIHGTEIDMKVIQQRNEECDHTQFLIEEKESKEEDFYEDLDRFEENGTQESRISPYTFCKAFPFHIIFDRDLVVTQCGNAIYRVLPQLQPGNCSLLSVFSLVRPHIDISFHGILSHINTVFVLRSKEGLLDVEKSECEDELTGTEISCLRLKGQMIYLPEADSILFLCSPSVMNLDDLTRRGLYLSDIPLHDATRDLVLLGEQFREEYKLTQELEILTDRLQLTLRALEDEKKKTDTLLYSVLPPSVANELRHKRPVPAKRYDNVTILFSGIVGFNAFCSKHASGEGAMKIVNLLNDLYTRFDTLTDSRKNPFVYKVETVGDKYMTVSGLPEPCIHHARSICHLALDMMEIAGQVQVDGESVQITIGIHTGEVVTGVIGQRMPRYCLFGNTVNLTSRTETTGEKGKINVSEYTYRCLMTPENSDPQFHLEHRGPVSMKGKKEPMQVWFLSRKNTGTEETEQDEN
T1 sequence (P19687 1-691): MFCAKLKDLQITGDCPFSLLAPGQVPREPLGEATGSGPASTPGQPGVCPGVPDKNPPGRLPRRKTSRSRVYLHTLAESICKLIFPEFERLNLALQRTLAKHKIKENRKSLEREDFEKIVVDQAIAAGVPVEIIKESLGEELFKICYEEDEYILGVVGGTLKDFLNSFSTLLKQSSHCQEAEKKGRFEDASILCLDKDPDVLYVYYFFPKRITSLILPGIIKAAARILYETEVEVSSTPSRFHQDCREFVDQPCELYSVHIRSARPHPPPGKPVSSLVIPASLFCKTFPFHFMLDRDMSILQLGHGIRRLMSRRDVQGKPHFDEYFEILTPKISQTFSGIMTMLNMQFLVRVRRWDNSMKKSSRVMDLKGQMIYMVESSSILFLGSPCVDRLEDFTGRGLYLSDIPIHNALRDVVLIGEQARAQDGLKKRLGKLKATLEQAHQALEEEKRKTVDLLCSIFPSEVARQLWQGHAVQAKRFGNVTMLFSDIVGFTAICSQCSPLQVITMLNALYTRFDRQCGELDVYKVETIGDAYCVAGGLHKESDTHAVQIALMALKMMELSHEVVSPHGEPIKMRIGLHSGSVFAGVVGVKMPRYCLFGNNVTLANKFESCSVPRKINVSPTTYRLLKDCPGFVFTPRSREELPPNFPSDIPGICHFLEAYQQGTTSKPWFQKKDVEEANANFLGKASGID
Experiment: Activation of the soluble guanylate cyclase (cGMP enzyme immunoassay)
Assay type: biochemical
Conditions: sGC isolated from bovine lung; concentration 50 μM; n-fold stimulation of basal enzyme activity = [cGMP]test substance/[cGMP]control
Experimental: The activation of the soluble guanylate cyclase (sGC), which catalyzes the conversion of guanosine triphosphate (GTP) into cyclic guanosine monophosphate (cGMP) and pyrophosphate, by the compounds according to the invention was quantified with the aid of an enzyme immunoassay (EIA) from Amersham. To this end, the substances to be tested were initially incubated with sGC in microtiter plates, and the amount of the cGMP formed was then determined.
The sGC which was employed had been isolated from bovine lung (see Methods in Enzymology, volume 195, p. 377). The test solutions (100 μl per well) contained 50 mM triethanolamine (TEA) buffer (pH 7.5), 3 mM MgCl2, 3 mM reduced glutathione (GSH), 0.1 mM GTP, 1 mM 3-isobutyl-1-methylxanthine (IBMX), suitably diluted enzyme solution and the substance to be tested or, in control experiments, the solvent. The substances to be tested were dissolved in dimethyl sulfoxide (DMSO) and the solution was diluted with DMSO/water, so that the final concentration of the substance to be tested in the test mixture was 50 μM. The DMSO concentration in the test mixture was 5% (v/v). The reaction was initiated by addition of the sGC. The reaction mixture was incubated at 37° C. for 15 to 20 minutes and the reaction was then stopped by ice-cooling and addition of the stop reagent (50 mM EDTA, pH 8.0). An aliquot of 50 μl was taken and used for determining the cGMP content using the acetylation protocol of the Amersham cGMP-EIA kit. The absorption of the samples was measured at 450 nm (reference wavelength 620 nm) in a microtiter plate reader. The cGMP concentration was determined using a standard curve which was obtained under the same test conditions. The activation of sGC by a test substance is reported as the n-fold stimulation of the basal enzyme activity which was found in the control experiments (using solvent instead of test substance) (calculated using the formula
n-fold stimulation=[cGMP]test substance/[cGMP]control).

Compound | n-fold stimulation
OCc1ccc(-c2nn(Cc3ccccc3)c3ccccc23)o1 [A, 1-benzyl-3-(5-hydroxymethyl-2-furyl)-indazole, reference compound] | 2-fold
COc1cccc(CCN2C(=O)c3ccccc3C2(O)c2ccc(F)cc2)c1 (stereo not shown) [Example 17, 3-(4-Fluorophenyl)-3-hydroxy-2-(2-(3-methoxyphenyl)ethyl)-2,3-dihydro-isoindol-1-one] | 16-fold
COc1cccc(CCN2C(=O)c3ccccc3C2(O)c2ccncc2)c1 (stereo not shown) [Example 29, 3-Hydroxy-2-(2-(3-methoxyphenyl)ethyl)-3-(4pyridyl)-2,3-dihydroisoindol-1-one] | 11.8-fold
COc1cccc(CCN2C(=O)c3c(F)c(F)c(F)c(F)c3C2(O)c2ccc(F)cc2)c1 (stereo not shown) [Example 33, 4,5,6,7-Tetrafluoro-3-(4-fluorophenyl)-3-hydroxy-2-(2-(3-methoxyphenyl)-ethyl)-2,3-dihydroisoindol-1-one] | 9.5-fold
